Reference: US8080497B2, “Method of controlling the aquatic weed Hydrilla verticillata” (BASF SE, priority 2005, dated 2011)

Test system: Hydrilla verticillata
Assay: Greenhouse container test, static exposure of Hydrilla verticillata in water columns
Assay type: in vivo
Settings: for Hydrilla Shoot Length: static exposure, 11 WAT, control 30.4 cm
Method: To begin the experiment, PVC cylinders were filled and maintained with a volume of 4000 ml of dechlorinated water that was maintained at room temperature (24° C.). To each cylinder, an established Hydrilla verticillata plant (potted in sand mixture) was transferred into the water column. Hydrilla plants were selected for uniformity and length of shoot growth (approx 15 cm). Plants were allowed to equilibrate in the columns for 24 hrs prior to herbicide treatment. Experimental treatments included an untreated control, and imazamox at 50 and 100 ppb of actual acid equivalent of herbicide. Treatments were applied to water columns by the use of a pipette. Amount of herbicide applied was based on the total volume of the cylinders (4000 ml). After initial herbicide treatment, the water columns were gently stirred to ensure uniform distribution. Treatments were arranged as a completely random design with 3 replications. Each cylinder was considered the experimental unit. Greenhouse conditions were maintained at 24/18° C. (day/night) cycle for the duration of the experiment. Natural day length was supplemented with halogen lighting to provide a 14 h photoperiod. Water level in the cylinders was periodically checked and maintained at the 4000 ml level for the duration of the study. After 11 weeks of exposure, Hydrilla shoot lengths were measured to ascertain herbicide effects.

For `COCc1cnc(C2=NC(C)(C(C)C)C(=O)N2)c(C(=O)O)c1` (racemic) [Imazamox, (RS)-2-(4-isopropyl-4-methyl-5-oxo-2-imidazolin-2-yl)-5-methoxymethylnicotinic acid], the “effect on the growth of Hydrilla” value (after the exposure period (11 weeks)) was “significant effect”, the visual symptomology (after the exposure period (11 weeks), intensity tended to be rate responsive) was “reduction in plant vigour, chlorosis and reduction of internodal length” and the “Hydrilla Shoot Length” value (rate 50 ppb) was 18.5 cm. The “Hydrilla Shoot Length” value (rate 100 ppb) was 12.3 cm.
